Source: PubChem BioAssay (NCI)
Several values for one entry are separate records, joined by “and”; a condition that tells them apart may be missing. Equal entries are not always repeated.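 Grown in 96-well plates, cells were treated for 48 hours with each compound at five concentrations. Insufficient inhibition: endpoint recorded as highest concentration tested. GI50 is the concentration that inhibits growth by half. TGI denotes the concentration required for complete inhibition of growth.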

What was measured:
Assay in all cases: NCI tumour cell line growth inhibition, 48 h
A549 NSCLC = system: A549 NSCLC
NCI-H23 lung = system: NCI-H23 lung
KM12 colon = system: KM12 colon
SW-620 colon = system: SW-620 colon
U251 CNS = system: U251 CNS
HOP-62 NSCLC = system: HOP-62 NSCLC
LOX IMVI melanoma = system: LOX IMVI melanoma
SF-268 CNS = system: SF-268 CNS
UACC-257 melanoma = system: UACC-257 melanoma
OVCAR-3 ovarian = system: OVCAR-3 ovarian

SMILES | GI50 (A549 NSCLC) [µM] | TGI (A549 NSCLC) | GI50 (NCI-H23 lung) [µM] | TGI (NCI-H23 lung) | GI50 (KM12 colon) [µM] | TGI (KM12 colon) | GI50 (SW-620 colon) [µM] | TGI (SW-620 colon) | GI50 (U251 CNS) [µM] | TGI (U251 CNS) | GI50 (HOP-62 NSCLC) [µM] | TGI (HOP-62 NSCLC) | GI50 (LOX IMVI melanoma) [µM] | GI50 (SF-268 CNS) [µM] | TGI (SF-268 CNS) | GI50 (UACC-257 melanoma) [µM] | TGI (UACC-257 melanoma) | GI50 (OVCAR-3 ovarian) [µM] | TGI (OVCAR-3 ovarian) | TGI (LOX IMVI melanoma)
C[C@@H]1CC[C@H]2C(COCCOCC3=C(C(F)(F)F)O[C@@H]4O[C@@]5(C)CC[C@H]6[C@H](C)CC[C@@H]3[C@@]46OO5)=C(C(F)(F)F)O[C@@H]3O[C@@]4(C)CC[C@@H]1[C@]32OO4 | < 0.0332 | > 100 µM | 0.535 | > 100 µM | 0.0305 | > 6.15 µM | 0.0293 | > 100 µM | < 0.01 | 0.178 µM | > 24 | > 100 µM | 0.0641 | 0.0602 | > 100 µM | 0.407 | > 100 µM | 0.134 | > 8.24 µM | 
CC1=C2C(=O)c3ccccc3C(=O)[C@H]2[C@H]2CCO[C@H]2O1 |  | > 100 µM |  | 45.6 µM |  | 58.1 µM |  | 53.1 µM |  | 59.3 µM |  | 40 µM |  |  | 35.1 µM |  | 36.5 µM |  | 36.5 µM | 58.4 µM
Cc1ccc(Oc2ccc(C)cc2[N+](=O)[O-])cc1 |  | > 100 µM |  | > 100 µM |  | > 100 µM |  | > 100 µM |  | > 100 µM |  | > 100 µM |  |  | > 100 µM |  | > 100 µM |  | > 100 µM | > 100 µM
O=c1oc2ccccc2c2c(=O)c3ccc(OC/C(=N/O)c4ccc(Cl)cc4)cc3oc12 |  | 32 µM |  | 45.1 µM |  | 14 µM |  | 37 µM |  | 23.3 µM |  | 31.5 µM |  |  | 41.8 µM |  | > 100 µM |  | 10.9 µM | 31.9 µM
Cc1ccc(S(=O)(=O)NCCSCCNS(=O)(=O)c2ccc(C)cc2)cc1 |  | > 100 µM |  | > 100 µM |  | > 100 µM |  | > 100 µM |  | > 100 µM |  |  |  |  | > 100 µM |  | > 100 µM |  | > 100 µM | > 100 µM
COc1ccc([C@@H]2ON(C)[C@H]3CN(C)C(=O)[C@@H]23)cc1 |  | > 100 µM |  | > 100 µM |  |  |  | > 100 µM |  | > 100 µM |  | > 100 µM |  |  |  |  | > 100 µM |  | > 100 µM | > 100 µM
O=C1c2c(c3c4ccccc4[nH]c3c3ccc4ccccc4c23)C(=O)N1CCN1CCCCC1 | 3.1 | > 100 µM | 0.741 | 9.79 µM | 3.05 | 25.5 µM | 0.663 | 4.75 µM | 1.05 | 7.51 µM | 1.06 | 3.43 µM | 0.894 | 1.15 | > 100 µM | 1.87 | 4.23 µM | 1.99 | 5.04 µM | 2.33 µM
Cc1c2cc[n+](CCN3CCCCC3)cc2c(C)c2c1[nH]c1ccc(O)cc12 |  | 34.7 µM and 27.8 µM | 2.6 | 53.1 µM and 27.7 µM | 3.14 | 27.9 µM and 14.1 µM | 6.26 | 55.4 µM and > 71 µM | 1.7 | 10.6 µM and 10.4 µM |  | 13 µM and 18.3 µM | 8.69 | 2.29 | 29.6 µM and 25.7 µM | 28.7 | 29 µM and > 74 µM | 11.1 | 40.2 µM and > 50.3 µM | 58.2 µM and 76.2 µM
CCCCCCNC(=O)c1cnc(Cl)cn1 |  | 42.3 µM |  | 23.5 µM |  | 29.3 µM |  | 28.4 µM |  | 23.6 µM |  | 34.3 µM |  |  | 31.4 µM |  | 37.4 µM |  |  | 27.7 µM
Cc1ccccc1N=Nc1ccc(N=Nc2c(O)ccc3ccccc23)c(C)c1 |  | > 100 µM |  | > 100 µM |  | > 100 µM |  | > 100 µM |  | > 100 µM |  | > 100 µM |  |  | > 100 µM |  | > 100 µM |  | > 100 µM | > 100 µM
NC(N)=N/N=C/c1c(-c2ccccc2)nc2n1ccc1nc(-c3ccccc3)c(/C=N/N=C(N)N)n12 |  | > 100 µM |  | > 100 µM |  | > 100 µM |  | > 100 µM |  | > 100 µM |  | > 100 µM |  |  | > 100 µM |  | 81.8 µM |  | > 100 µM | > 100 µM
O=c1ccc2cc(O)c(O)cc2o1 |  | > 100 µM |  | > 100 µM |  | > 100 µM |  | > 100 µM |  | > 100 µM |  | > 100 µM |  |  | > 100 µM |  | > 100 µM |  | > 100 µM | > 100 µM
